“And” between values parts separate entries of the source, which are not always exact repeats. Equal entries are not always repeated.

For test [1], the system named is Anopheles stephensi maxillary palps. Briefly: Electropalpogram (EPG), non bloodfed females. To be noted: chemicals at 1/10 concentrations, CO2 5%; n=7. How it is done: (§1) In order to assess Y-tube olfactometry experiments and field trials using an independent technique and to investigate the physiological basis of the observed activation and attraction behaviour, electroanntennogram (EAG) and electropalpogram (EPG) studies were performed on A. stephensi female mosquitoes. EAG studies were also performed on Anopheles farauti, Culex annulirostris and Aedes aegypti female mosquitoes.
(§2) Five to eight days Anopheles stephensi, two to fourteen days old Culex annulirostris and Aedes aegypti as well as four days old Anopheles faraulti non-blooded females, fed on 10% sucrose ad-libitum and then starved for >12 hours, were used. Mosquito head was excised and placed on the reference electrode coated with electrode gel (Parker Laboratories, Orange, N.J.). The distal end of the antennae or palp (<0.5 mm), cut to ensure a good electrical contact, were carefully placed on the recording electrode (Syntech, Germany). Signals were fed to a 10× amplifier and processed with IDAC 4 and PC-based interface and EAG software package (Syntech, Germany).
(§3) Thus 1-octen-3-ol was used in the EAG analysis as a positive control with thio compounds, (E and Z)-1-methylthio-1-propene, 3-methyl-thio-1-propanol, ally methyl sulphide, and carbon dioxide (5%) and mineral oil (negative control). Pure chemicals were diluted in mineral oil to a 10 times v/v stock solution, from which decadal dilutions were made. A 10 μl aliquot of each solution was applied to a filter paper strip (1×3.5 cm; Whatman No. 4, Fisher Scientific) and the solvent was evaporated under a fume hood before inserting the paper strip into 5 ml disposable plastic syringe (Terumo syringes). A 500 ms pulse (5 ml/s) was delivered by stimulus controller CS-55 (Syntech, Germany) to deliver chemical stimulants to a humidified continuous air flow (10 ml/s) over the electrophysiolgical preparation. The chemicals were tested randomly and applied with 0.5-1 min intervals between stimulations.
(§4) Initial screening was performed using a 10 times dilution (1/10, v/v) source dose solution. Then 1-methylthio-1-propene and 1-octen-3-ol were selected for further dose-response study. A minimum of five mosquitoes were tested for each compound to calculate the average EAG amplitude±standard error (SE).

The test system of test [2] is female An. gambiae antennae. The following applies: cited from earlier work.
Test [3] concerns Anopheles farauti maxillary palps. Briefly: Electropalpogram (EPG), non bloodfed females. To be noted: chemicals at 1/10 concentrations, CO2 5%; n=6.
In a further test the test system is C. annulirostis antennae. The test is described as follows: Electroantennogram (EAG), non bloodfed females. More on the design: species or system Culex annulirostris. The following applies: n=5. The protocol:
as §1, §2
(§5) Thus 1-octen-3-ol was used in the EAG analysis as a positive control with thio compounds, (E and Z)-1-methylthio-1-propene, 3-methyl-thio-1-propanol, ally methyl sulphide, and carbon dioxide (5%) and mineral oil (negative control). […]

For test [4], the system named is female Anopheles funestus antennae. To be noted: cited from earlier work.
The test system of test [5] is Anopheles stephensi antennae. The test is described as follows: Electroantennogram (EAG), non bloodfed females. To be noted: chemicals at 1/10 concentrations, CO2 5%; n=6. The protocol:
as §1, §2, §3, §4

Test [6] has as its system Anopheles farauti antennae. The test is described as follows: Electroantennogram (EAG), non bloodfed females. The following applies: chemicals at 1/10 concentrations, CO2 5%; n=5. The protocol: as §1, §2, §3, §4
Test [7] deals with Anopheles stephensi. The test is described as follows: Y-tube olfactometer, measurement of attraction against CO2/1-octen-3-ol positive control. Format: in vivo. The protocol:
Attraction to these components was compared to a standard “positive control” known to elicit a directional response in An. stephensi mosquitoes placed in an olfactometer. The standard used as a positive control is a mix of compressed air, 5% CO2 and an octenol source. Unpaired t-test was used to test for the differences in means for all data sets presented.
The MR4 strain of An. stephensi (New Delhi, India) was maintained at 27° C., 70% RH, 12:12 L:D and 30 min dawn/dusk periods). 4 to 7 day old female mosquitoes, that had never received a blood meal, were used in experiments. Mosquitoes were maintained on 10% sugar solution ad libitum but starved for 12 hr prior to testing.
The Y tube olfactometer is made entirely of glass and consists of a release chamber, the Y tube itself, and a trap chamber attached to each arm (FIG. 1). Each trap chamber is divided in two by a fine glass filter. On the far side of those filters, the trap chambers can connect to charcoal filters or to gas bags or gas cylinders. Air is pulled through the olfactometer by connecting the release chamber to a vacuum tap which vents the contents of the tube. Standard air flow (0.4 L/minute) is maintained using a 0.1-1.2 LPM flow meter (John Morris Pty, LTD). The air volume of the Y-tube is approximately 1 litre and is therefore replaced every 2.5 minutes.
1 μl 10^−4% 1-octen-3-ol in mineral oil (Sigma Aldrich) was spotted on 1 cm^2 Whatman filter paper.
5% CO2 by volume was added to a 10 L FlexFilm gasbag (SKC Inc.) of compressed air.
When a CO2/1-octen-3-ol mix was required, 5% CO2 was delivered by connecting the gas bag to the requisite Y tube arm and placing the 1-octen-3-ol treated filter paper between the gasbag inlet and the glass filter of the trap chamber.
All experiments were run under PC2 quarantine conditions, at 27° C., 70% RH, under infrared light. Observers were always in the same position during the tests, at the trap chamber end of the olfactometer, between the 2 arms of the Y tube.
Using an aspirator, 25-30 starved female An. stephensi were introduced into the release chamber (FIG. 1).
After each test, mosquitoes were carefully aspirated from the apparatus by disconnecting constituent parts. The apparatus was flushed with clean air (charcoal filters only) for 5 minutes before the next batch of stimuli was introduced.
A total of 10 replicates (different batches of mosquitoes) were run for each stimuli assessment. Treatment and control arms were alternated between replicates. After completion of 10 replicates, the apparatus was rinsed in acetone and allowed to dry overnight.
Once the range of doses that “activated” mosquitoes had been established, the capacity of those concentrations to initiate a directional response was tested. In this instance, experiments were conducted in comparison to a positive control of CO2/1-octen-3-ol [[…]]. […] A positive control was used to assess whether test stimuli were at least as attractive as a standard directional stimulus.

Test [8] concerns Anopheles stephensi. Briefly: Y-tube olfactometer, measurement of activation against clean air. Format: in vivo. The following applies: for Activation (against clean air): An. stephensi females. The protocol:
A y-tube olfactometer was used to establish whether the volatile components of human breath elicited behavioural responses in the malaria vector Anopheles stephensi. The MR4 strain of An. stephensi (New Delhi, India) was maintained at 27° C., 70% RH, 12:12 L:D and 30 min dawn/dusk periods). 4 to 7 day old female mosquitoes, that had never received a blood meal, were used in experiments. Mosquitoes were maintained on 10% sugar solution ad libitum but starved for 12 hr prior to testing. The Y tube olfactometer is made entirely of glass and consists of a release chamber, the Y tube itself, and a trap chamber attached to each arm (FIG. 1). Each trap chamber is divided in two by a fine glass filter. On the far side of those filters, the trap chambers can connect to charcoal filters or to gas bags or gas cylinders. Air is pulled through the olfactometer by connecting the release chamber to a vacuum tap which vents the contents of the tube. Standard air flow (0.4 L/minute) is maintained using a 0.1-1.2 LPM flow meter (John Morris Pty, LTD). The air volume of the Y-tube is approximately 1 litre and is therefore replaced every 2.5 minutes. One arm is attached to a gas bag of clean air (from a compressed air cylinder) […]. The other arm remains connected to a carbon filter and the air inlet to give a plume of compressed air plus test stimuli (i.e. standard air concentration of CO2 only). 1 μl 10^−2 to 10^−5% test stimuli in mineral oil (Sigma Aldrich) was spotted on 1 cm^2 Whatman filter paper. Test stimuli was delivered by placing treated filter paper between the air inlet and the trap chamber to give a plume of compressed air plus test stimuli (i.e. standard air concentration of CO2 only). All experiments were run under PC2 quarantine conditions, at 27° C., 70% RH, under infrared light. Observers were always in the same position during the tests, at the trap chamber end of the olfactometer, between the 2 arms of the Y tube. Using an aspirator, 25-30 starved female An. stephensi were introduced into the release chamber (FIG. 1). […] After each test, mosquitoes were carefully aspirated from the apparatus by disconnecting constituent parts. The apparatus was flushed with clean air (charcoal filters only) for 5 minutes before the next batch of stimuli was introduced. A total of 10 replicates (different batches of mosquitoes) were run for each stimuli assessment. Treatment and control arms were alternated between replicates. After completion of 10 replicates, the apparatus was rinsed in acetone and allowed to dry overnight. Initial experiments were therefore less concerned with directional responses and more with establishing the range of doses that appeared to cause some form of excitation. Those initial experiments were conducted in comparison to a neutral control (a negative would be repellent) of clean air drawn through a charcoal filter. The test stimuli were tested against mosquitoes at serial dilutions in the range 10^−2 to 10^−5%. Once mosquitoes had stopped responding, the numbers in the olfactometer arms, base leg and release chamber were counted. Mosquitoes were assumed to have been “activated” if they moved into the Y tube arms.

For a further test, the system named is Total mosquito. Briefly: Field trial with CDC light traps, total mosquito catch. Format: in vivo. To be noted: CO2 alone (1 kg dry ice); CDC light trap, one night; treatment per Table 3. The protocol:
Field trials based on an imperfect Latin square design compared the attraction of An. farauti to MTPE with and without CO2. Treatments included CO2 alone, CO2 in combination with MTPE lure, or MTPE lure alone. Centres for Disease Control and Prevention (CDC) light traps were used to deliver MTPE lures and/or CO2. MTPE lures consisted of 500 μl of MTPE in mineral oil, 10-100,000 ppm spread on filter paper. MTPE/mineral oil mixtures were spread on filter paper, rolled into a tight wick, and inserted into a specimen tube. Specimen tubes where then wired to a CDC trap. CO2 was delivered using 1 kg dry ice, hung above a CDC light trap, as per standard sampling protocols. MTPE+/−CO2 combinations were randomised between 4 trap positions over three nights. Traps were placed at least 50 m apart to manage interference and were set between 5 pm and 7 am each night. Trap catches were subsequently returned to the laboratory, counted and identified as “Anopheles farauti s.l” or “other”.
As CO2 is a known mosquito attractant, all catches were compared to CO2 alone.

In a further test the test system is A. aegypti antennae. Briefly: Electroantennogram (EAG), non bloodfed females. More on the design: species or system Aedes aegypti. The following applies: n=5. The protocol:
as §1, §2, §5

Where [9] appears, read: dilution 0.0001 (10^-4)% in mineral oil.
The mark [10] stands for this setting: dilution 0.01 (10^-2)% in mineral oil.

For the compound `C=CC(O)CCCCC` (stereo not shown) [1-octen-3-ol, reference compound], the “EPG response compared to mineral oil control” value in [1] and in test [3] was “did not” each time. Besides, the EAG response result in test [2] and in [4] was “significant EAG response” in each case. The “EAG response, comparison among tested chemicals” value in the test on C. annulirostis antennae is on record as “strongest response”. In addition, the “EAG response compared to mineral oil control” value is reported as “significantly responded” in test [5] and “significantly responding” in test [6].
With `C=CCSC` [AMS, Allyl methyl sulphide], the “EPG response compared to mineral oil control” value in test [1] was “significant responses”. Also, the “Attractiveness relative to 1-octen-3-ol/CO2” value with Anopheles stephensi [7] (at 0.00001%) is “twice”. Further, the “Attraction (against CO2 + 1-octen-3-ol)” value in the test with Anopheles stephensi [7] (dilution 0.00001 (10^-5)%, An. stephensi females) is on record as “Yes”. The “Concentration of greatest activation response” value in the test on Anopheles stephensi [8] (against clean air, tested 10^-2 to 10^-5%) was determined as 0.00001 % v/v. Further, the “Activation (against clean air)” value was “caused activation and Yes” with Anopheles stephensi [8] (dilution 0.00001 (10^-5)% in mineral oil); “Yes” in the test with Anopheles stephensi [8] (setting [9]); “Yes” in the test with Anopheles stephensi [8] (setting [10]).
Take `O=C=O` [CO2, carbon dioxide, reference compound]: the “EPG response compared to mineral oil control” value in [1] and in test [3] was “significant responses” throughout. In addition, in the test on Total mosquito, the “Total mosquito catch numbers” value was 206 and 233 and 298.
For `CSCCCO` [MTPL, 3-methylthio-1-propanol], the “EPG response compared to mineral oil control” value in [1] was “did not”. Moreover, the “Attractiveness relative to 1-octen-3-ol/CO2” value in the test on Anopheles stephensi [7] (at 0.01%) stood at 1.5. Further, the “Concentration range over which an activation response was initiated” value in the test on Anopheles stephensi [8] (against clean air) is given as 0.00001-0.01%. Further, the “Activation (against clean air)” value with Anopheles stephensi [8] (setting [9]), in the test with Anopheles stephensi [8] (dilution 0.001 (10^-3)% in mineral oil) and in the test on Anopheles stephensi [8] (setting [10]) was “Yes” in each case. In addition, the “EAG response, comparison among tested chemicals” value in the test on C. annulirostis antennae and in the test on A. aegypti antennae was “strongest response” throughout.

The values above are taken from patent US10701931B2, “Mosquito activating formulations” (Commonwealth Scientific and Industrial Research Organisation, priority 2015, dated 2020).
